Test results: US10906880B2, “Kind of isothiazole oxime ether-containing strobilurin derivatives and its preparation methods and application” (priority 2016, dated 2021)
Where two headings read alike, the source gives them in different places.

How the values were obtained:
[1] = system: Phytophthora infestans (Mont) de Bary; test: microbe, parasite or virus in culture; type: cell-based; details: Phytophthora infestans, read-out: Fungicidal activity inhibition, PI, 50 μg/mL, P. infestans (Mont.) de Bary
TMV [2] = test: Anti-TMV activity on tobacco, inactivation mode; type: in vivo, tobacco mosaic virus; details: Tobacco mosaic virus, 100 μg/mL, read-out: Anti-TMV activity inhibition, Inactivation effect
TMV [3] = test: Anti-TMV activity on tobacco, protection mode; type: in vivo, tobacco mosaic virus; details: Tobacco mosaic virus, 100 μg/mL, read-out: Anti-TMV activity inhibition, Protection effect
TMV [4] = test: Anti-TMV activity on tobacco, curative mode; type: in vivo, tobacco mosaic virus; details: Tobacco mosaic virus, 100 μg/mL, tobacco; read-out: Anti-TMV activity inhibition, Curative effect
Alternaria solani = test: Fungicide activity, mycelial growth inhibition on PDA plate; type: cell-based; details: Alternaria solani, read-out: Fungicidal activity inhibition, AS
TMV [5] = test: Anti-TMV activity on tobacco, induction mode (systemic acquired resistance); type: in vivo, tobacco mosaic virus; details: Tobacco mosaic virus, 100 μg/mL, read-out: Anti-TMV activity inhibition, Induction effect
Sclerotinia sclerotiorum = test: Fungicide activity, mycelial growth inhibition on PDA plate; type: cell-based; details: Sclerotinia sclerotiorum, read-out: Fungicidal activity inhibition, SS
Gibberella zeae = test: microbe, parasite or virus in culture; type: cell-based; details: Fusarium graminearum, read-out: Fungicidal activity inhibition, GZ, 50 μg/mL, G. zeae
Botrytis cinerea = test: Fungicide activity, mycelial growth inhibition on PDA plate; type: cell-based; details: Botrytis cinerea, read-out: Fungicidal activity inhibition, BC
Pellicularia sasakii = test: as above; type: cell-based; details: 50 μg/mL, P. sasakii; read-out: Fungicidal activity inhibition, PS
Cercospora arachidicola = test: Fungicide activity, mycelial growth inhibition on PDA plate; type: cell-based; details: Mycosphaerella arachidis, read-out: Fungicidal activity inhibition, CA
Rhizoctonia cerealis = test: as above; type: cell-based; details: Ceratobasidium cereale, read-out: Fungicidal activity inhibition, RC
Physalospora piricola = test: as above; type: cell-based; details: 50 μg/mL, P. piricola; read-out: Fungicidal activity inhibition, PP

For `CO/N=C(/C(=O)NCC(F)F)c1ccccc1CO/N=C(\N)c1snc(Cl)c1Cl` [CL04-24], the inhibition at 50 µg/mL [1] was 22.9%, the inhibition at 100 µg/mL (TMV [2]) was 27.3 ± 6.56% and the inhibition at 100 µg/mL (TMV [3]) was 36.8 ± 5.5%. It also gave an inhibition at 100 µg/mL (TMV [4]) of 15 ± 3.08%, an inhibition at 50 µg/mL (Alternaria solani; 50 μg/mL, A. solani) of 12.7% and an inhibition at 100 µg/mL (TMV [5]) of over 30%. The inhibition at 50 µg/mL (Sclerotinia sclerotiorum; 50 μg/mL, S. sclerotiorum) was 52.9%, the inhibition at 50 µg/mL (Gibberella zeae) was over 30% and the inhibition at 50 µg/mL (Botrytis cinerea; 50 μg/mL, B. cinerea) was 37.5%. The inhibition at 50 µg/mL (Pellicularia sasakii) was 24.2%, the melting point was 118 to 120 °C and the inhibition at 50 µg/mL (Cercospora arachidicola; 50 μg/mL, C. arachidicola) was 16.7%. It also gave an inhibition at 50 µg/mL (Rhizoctonia cerealis; 50 μg/mL, R. cerealis) of 62%, an inhibition at 50 µg/mL (Rhizoctonia cerealis) of over 50% and an inhibition at 50 µg/mL (Physalospora piricola) of 39.5%.

`CO/N=C(/C(=O)NC(C)(C)CSC)c1ccccc1CO/N=C(\N)c1snc(Cl)c1Cl` [CL04-25D] showed an inhibition at 50 µg/mL [1] of 17.1%, an inhibition at 100 µg/mL (TMV [2]) of 0% and an inhibition at 100 µg/mL (TMV [3]) of 21.1 ± 1.69%. The inhibition at 100 µg/mL (TMV [4]) was over 30%, the inhibition at 50 µg/mL (Alternaria solani; 50 μg/mL, A. solani) was 16.4% and the inhibition at 100 µg/mL (TMV [5]) was 21.1 ± 3.69%. The inhibition at 50 µg/mL (Sclerotinia sclerotiorum; 50 μg/mL, S. sclerotiorum) was 52.9%, the inhibition at 50 µg/mL (Sclerotinia sclerotiorum) was over 40% and the inhibition at 50 µg/mL (Gibberella zeae) was 21.2%. It also gave an inhibition at 50 µg/mL (Botrytis cinerea; 50 μg/mL, B. cinerea) of 39.3%, an inhibition at 50 µg/mL (Pellicularia sasakii) of 15.2% and a melting point of 28 to 30 °C. For the same molecule, the inhibition at 50 µg/mL (Cercospora arachidicola; 50 μg/mL, C. arachidicola) was 12.5%, the inhibition at 50 µg/mL (Rhizoctonia cerealis; 50 μg/mL, R. cerealis) was 62% and the inhibition at 50 µg/mL (Physalospora piricola) was 27.7%.

`CO/N=C(/C(=O)N[C@@H](C)CSC)c1ccccc1CO/N=C(\N)c1snc(Cl)c1Cl` [CL04-25E] gave an inhibition at 50 µg/mL [1] of 11.4%, an inhibition at 100 µg/mL (TMV [2]) of 0% and an inhibition at 100 µg/mL (TMV [3]) of 26 ± 4.71%. For the same molecule, the inhibition at 100 µg/mL (TMV [4]) was 19.1 ± 6.56%, the inhibition at 50 µg/mL (Alternaria solani; 50 μg/mL, A. solani) was 9.09% and the inhibition at 100 µg/mL (TMV [5]) was 16 ± 7.71%. For the same molecule, the inhibition at 50 µg/mL (Sclerotinia sclerotiorum; 50 μg/mL, S. sclerotiorum) was 52.9%, the inhibition at 50 µg/mL (Sclerotinia sclerotiorum) was over 40% and the inhibition at 50 µg/mL (Gibberella zeae) was over 30%. The inhibition at 50 µg/mL (Botrytis cinerea; 50 μg/mL, B. cinerea) was 35.7%, the inhibition at 50 µg/mL (Pellicularia sasakii) was 21.2% and the inhibition at 50 µg/mL (Cercospora arachidicola; 50 μg/mL, C. arachidicola) was 16.7%. The inhibition at 50 µg/mL (Rhizoctonia cerealis; 50 μg/mL, R. cerealis) was 54%, the inhibition at 50 µg/mL (Rhizoctonia cerealis) was over 50% and the inhibition at 50 µg/mL (Physalospora piricola) was 10.9%.

Molecule `CO/N=C(/C(=O)NCC(F)F)c1ccccc1CO/N=C(C)/C=C/c1snc(Cl)c1Cl` [CL04-32A] has an inhibition at 100 µg/mL (TMV [2]) of over 30%, an inhibition at 100 µg/mL (TMV [3]) of over 40% and an inhibition at 100 µg/mL (TMV [4]) of 1.52 ± 0.62%. It also gave an inhibition at 50 µg/mL (Alternaria solani; 50 μg/mL, A. solani) of 34.4%, an inhibition at 50 µg/mL (Alternaria solani) of over 30% and an inhibition at 100 µg/mL (TMV [5]) of over 30%. For the same molecule, the inhibition at 50 µg/mL (Sclerotinia sclerotiorum; 50 μg/mL, S. sclerotiorum) was 53.3%, the inhibition at 50 µg/mL (Sclerotinia sclerotiorum) was over 40% and the inhibition at 50 µg/mL (Gibberella zeae) was over 30%. It also gave an inhibition at 50 µg/mL (Botrytis cinerea; 50 μg/mL, B. cinerea) of 52.6%, an inhibition at 50 µg/mL (Botrytis cinerea) of over 45% and an inhibition at 50 µg/mL (Pellicularia sasakii) of 35.1%. For the same molecule, the melting point was 98 to 100 °C, the inhibition at 50 µg/mL (Cercospora arachidicola; 50 μg/mL, C. arachidicola) was 36% and the inhibition at 50 µg/mL (Cercospora arachidicola) was over 30%. It also gave an inhibition at 50 µg/mL (Rhizoctonia cerealis; 50 μg/mL, R. cerealis) of 85.4%, an inhibition at 50 µg/mL (Rhizoctonia cerealis) of over 50% and an inhibition at 50 µg/mL (Physalospora piricola) of 29.8%.

In the case of `CO/N=C(/C(=O)NC(C)(C)CSC)c1ccccc1CO/N=C(C)/C=C/c1snc(Cl)c1Cl` [CL04-32E], the inhibition at 50 µg/mL [1] is reported as 11.4%, the inhibition at 100 µg/mL (TMV [2]) is reported as 13.7 ± 0.55% and the inhibition at 100 µg/mL (TMV [3]) is reported as over 40%. It also gave an inhibition at 100 µg/mL (TMV [4]) of 1.52 ± 0.62%, an inhibition at 50 µg/mL (Alternaria solani; 50 μg/mL, A. solani) of 5.45% and an inhibition at 100 µg/mL (TMV [5]) of over 70%. For the same molecule, the inhibition at 50 µg/mL (Sclerotinia sclerotiorum; 50 μg/mL, S. sclerotiorum) was 41.2%, the inhibition at 50 µg/mL (Gibberella zeae) was 24.2% and the inhibition at 50 µg/mL (Botrytis cinerea; 50 μg/mL, B. cinerea) was 32.1%. For the same molecule, the inhibition at 50 µg/mL (Pellicularia sasakii) was 15.2%, the inhibition at 50 µg/mL (Cercospora arachidicola; 50 μg/mL, C. arachidicola) was 12.5% and the inhibition at 50 µg/mL (Rhizoctonia cerealis; 50 μg/mL, R. cerealis) was 58%. It also gave an inhibition at 50 µg/mL (Physalospora piricola) of 39.5%.
